The source of these data is patent publication US20250170155A1, “NUCLEOSIDE DERIVATIVES AND PRODRUGS THEREOF HAVING VIRAL GROWTH INHIBITORY ACTION” (Shionogi & Co., Ltd., priority 2021, published 2025).

pEC50: −log10 of the molar value.

For data set [1], the system named is influenza virus (A/WSN/33 (H1N1) strain). Kind of data set: CPE suppression effect confirmation test (influenza virus, RPMI 2650 cells), antiviral activity. It counts as cell-based. The note with it: read-out: Influenza EC50 (50% CPE inhibitory concentration), A/WSN/33 (H1N1), 3 to 6 days.
The test system of data set [2] is RPMI 2650 cells. Kind of data set: Cytotoxic activity evaluation, RPMI 2650 cells. It is filed as cell-based. To be noted: read-out: Influenza test CC50 (50% cell proliferation inhibitory concentration), no virus, 3 to 6 days. As for the experimental part: (§1) <Operation Procedure (Cytotoxic Activity Evaluation)>
On the day before the compound treatment, cells prepared to an appropriate number were seeded in a 96 well plate at 100 μL/well. Thereafter, the cells were cultured in a CO2 incubator at 37° C. • Preparation of 2 μg/mL trypsin/0.5% BSA/MEM
Same as those described in the section for evaluation of antiviral activity • Dilution and dispensing of test substance
A 3- to 5-fold serial dilution series of test substances was prepared in DMSO in advance, and diluted with 2 μg/mL trypsin/0.5% BSA/MEM so that the final concentration of DMSO was 0.5% (100 to 200 μL/well). The cells were washed with MEM, and then cultured in a test substance-added medium for 3 to 6 days. Double measurement was performed for each drug. • Dispensing of resazurin solution
Same as those described in the section for evaluation of antiviral activity • Measurement of fluorescence intensity
(§2) Same as those described in the section for evaluation of antiviral activity
[formula] [formula] • Calculation of Selectivity Index (SI)

For data set [3], the system named is SARS-CoV-2 (hCoV-19/Japan/TY/WK-521/2020 strain). Kind of data set: CPE suppression effect confirmation test (SARS-CoV-2, Vero E6/TMPRSS2 cells), antiviral activity. It counts as cell-based. The note with it: read-out: SARS-CoV-2 EC50 (50% CPE inhibitory concentration), 3 days culture.
For data set [4], the system named is Vero E6/TMPRSS2 cells. Description: Cytotoxic activity evaluation, Vero E6/TMPRSS2 cells. It counts as cell-based. The note with it: read-out: SARS-CoV-2 test CC50 (50% cell proliferation inhibitory concentration), no virus, 3 days. The procedure:
as §1
A 3- to 5-fold serial dilution series of test substances was prepared in DMSO, diluted with 2% FBS/MEM so that the concentration of DMSO was 2%, and dispensed into a 96 well plate (50 μL/well, DMSO final concentration 0.5%). • Dilution and dispensing of cells
The cells prepared to an appropriate number were seeded at 100 μL/well to the plate into which the test substance was dispensed. Thereafter, the cells were cultured in a CO2 incubator at 37° C. for 3 days. • Dispensing of CellTiter-Glo (registered trademark) 2.0 Reagent
Same as those described in the section for evaluation of antiviral activity • Measurement of luminescence intensity
as §2
Excel, TIBCO Spotfire, or a program having equivalent calculation processing capability based on the following calculation formula.

Data set [5] in a line: Lung distribution test. It counts as in vivo. To be noted: SD rats, 8 hours after oral administration (25 mg/kg); for concentration at 8 h: rat, read-out: Prodrug form concentration (lung). The procedure: Test Example 5: Lung Distribution Test
Materials and methods for experiments • (1) Animals used: SD rats are used. • (2) Rearing conditions: the SD rats are allowed to freely take solid feed and sterilized tap water. • (3) Dose and grouping setting: a given dose is orally administered. Grouping is set as below.
Oral administration: 1 to 100 mg/kg (n=2 to 3) • (4) The test sample is orally administered in a form of solution or suspension. • (5) Administration method: the test sample is forcedly administered into the stomach through an oral probe for the oral administration. • (6) Evaluation items: Blood and lung are collected, and the concentrations of the compound of the present invention in plasma and lung are measured using LC/MS/MS.
Lung concentrations of Compound I-057 as an active form and Compound I-077 as a prodrug form thereof 8 hours after they were orally administered (25 mg/kg) are shown below.
In addition, lung concentrations of other prodrug forms 8 hours after they were orally administered (25 mg/kg) are shown below.

On to `Nc1ncnn2c([C@@H]3O[C@](F)(CO)[C@@H](O)C3(F)F)ccc12` [Compound I-008], for which the pEC50 in data set [1] was 5.15. Further, in data set [2], the CC50 came to 432 µM.
As for `N/C(=N\O)c1cc([C@@H]2N[C@H](CO)[C@@H](O)[C@H]2O)n2ncnc(N)c12` [Compound I-016], in data set [3], the pEC50 was 5.80. Moreover, in data set [4], the CC50 was over 500 µM.
Regarding `CC1(C)O[C@@H]2[C@H](O1)[C@@H](CO)N[C@H]2c1cc(/C=N/O)c2c(N)ncnn12` [Compound I-018], the pEC50 in data set [1] was 5.97. The CC50 in data set [2] is over 500 µM.
With `OC[C@H]1N[C@@H](c2ccc3c(NO)ncnn23)[C@H](O)[C@@H]1O` [Compound I-020], the pEC50 in data set [1] was 4.69. For the same molecule, in data set [2], the CC50 was over 500 µM.
On to `Nc1ncnn2c([C@@H]3N[C@H](CO)[C@@H](O)[C@H]3O)cc(O)c12` [Compound I-022], for which the pEC50 in data set [3] is 5.99; in data set [1], 3.98. The CC50 in data set [4] was 129 µM; in data set [2], over 500 µM.
As for `CC(C)(C)OC(=O)N1[C@H](CO)[C@@H](O)[C@@H](O)[C@@H]1c1cc(N)c2c(N)ncnn12` [Compound I-024], the pEC50 was 4.31 in data set [3] and 4.32 in data set [1]. Also, the CC50 was 189 µM in data set [4] and 310 µM in data set [2].
For the molecule `Cn1ccc(-c2cc([C@H]3[C@@H]4OC(C)(C)O[C@@H]4[C@@H](CO)N3C(=O)OC(C)(C)C)n3ncnc(N)c23)n1` [Compound I-030], in data set [1], the pEC50 is 5.12. In addition, the CC50 in data set [2] was over 500 µM.
For `CC(O)c1cc([C@@H]2N[C@H](CO)[C@@H](O)[C@H]2O)c2ncnc(N)n12` (some centres unmarked) [Compound I-038], in that order: 5.36 and over 500 µM.
Regarding `N#C[C@@]1(c2c[nH]c3c(N)ncnc23)O[C@H](CO)[C@@H](O)[C@H]1O` [Compound I-048], in data set [3], the pEC50 is 4.39. For the same molecule, the CC50 in data set [4] is over 500 µM.
Turning to `CCC(CC)C(=O)OC[C@H]1N[C@@H](c2cc(C(N)=O)c3c(N)ncnn23)[C@H](O)[C@@H]1O` [Compound I-054], the “Active form concentration (lung)” value in data set [5] is reported as 6480 ng/g.
As for `CC(C)(C)CC(=O)OC[C@H]1N[C@@H](c2cc(C(N)=O)c3c(N)ncnn23)[C@H](O)[C@@H]1O` [Compound I-058], the concentration at 8 h in data set [5] was 12.7 ng/g.
Take `CCC(C)(C)C(=O)OC[C@H]1N[C@@H](c2cc(C(N)=O)c3c(N)ncnn23)[C@H](O)[C@@H]1O` [Compound I-063]: in data set [5], the concentration at 8 h amounted to 3.85 ng/g.
Consider `CC(C)(C(=O)OC[C@H]1N[C@@H](c2cc(C(N)=O)c3c(N)ncnn23)[C@H](O)[C@@H]1O)c1ccccc1` [Compound I-072], for which the concentration at 8 h in data set [5] turned out to be 6.41 ng/g.
